# Patent US20170121344A1 (Siga Technologies, Inc., priority 2009, published 2017)
# Tested on: Dengue-2 (Strain New Guinea C)
# Assay: Viral yield assay against Dengue-2 in Vero cells
# Type: cell-based, Dengue virus
# Settings: Dengue virus, DENV2, Vero, 48 h, read-out: Activity (EC50 in μM) DENV-2
# Procedure: Compounds that were active in the primary screen were tested for activity in viral yield assays. […] Vero cells in 12-well plates were infected with dengue-2 virus at a multiplicity of infection (MOI) of 0.1, treated with compound (or DMSO as a control), incubated at 37° C., harvested 48 hours post infection and titered on Vero cells as described above. The EC50 was calculated through ExcelFit. Activities against other serotypes of dengue virus were determined in a similar way.
row,Compound,EC50 [µM]
1,"Nc1c(C(=O)Nc2ccc3c(c2)OCO3)sc2nc(-c3ccc(F)cc3)ccc12 [Compound 608, 3-amino-N-(1,3-benzodioxol-5-yl)-6-(4-fluorophenyl)thieno[2,3-b]pyridine-2-carboxamide]",< 5
2,"COc1ccc(-c2ccc3c(N)c(C(=O)Nc4ccc5c(c4)OCO5)sc3n2)cc1OC [Compound 580, 3-amino-N-(1,3-benzodioxol-5-yl)-6-(3,4-dimethoxyphenyl)thieno[2,3-b] pyridine-2-carboxamide]",< 5
3,"COc1cccc(-c2ccc3c(N)c(C(=O)Nc4ccc(OC)c(OC)c4)sc3n2)c1 [Compound 508, 3-amino-N-(3,4-dimethoxyphenyl)-6-(3-methoxyphenyl)thieno[2,3-b]pyridine-2-carboxamide]",< 5

# Same assay, conditions: Dengue virus, DENV2; Vero cells; read-out: Activity (EC50 in μM) DENV-2
row,Compound,EC50 [µM]
1,"CN(C)CCNc1c(C(=O)Nc2nnc(-c3ccccc3)s2)sc2nc3c(cc12)CCCCC3 [Compound 315, 3-((2-(dimethylamino)ethyl)amino)-N-(5-phenyl-1,3,4-thiadiazol-2-yl)-6,7,8,9-tetrahydro-5H-cyclohepta[b]thieno [3,2-e]pyridine-2-carboxamide]",< 5

# Same assay, conditions: Dengue virus, DENV2; viral yield assay, Vero cells, MOI 0.1, 48 hours post infection; read-out: Activity (EC50 in μM) DENV-2
row,Compound,EC50 [µM]
1,"Nc1c(C(=O)Nc2cc(Cl)ccc2Cl)sc2nc(-c3ccc4c(c3)OCO4)ccc12 [Compound 587, 3-amino-6-(1,3-benzodioxol-5-yl)-N-(2,5-dichlorophenyl)thieno[2,3-b]pyridine-2-carboxamide]",< 5
2,"COc1ccnc2sc(C(=O)Nc3nnc(-c4ccccc4)s3)c(N)c12 [Compound 287, 3-amino-4-methoxy-N-(5-phenyl-1,3,4-thiadiazol-2-yl)thieno[2,3-b]pyridine-2-carboxamide]",5 to 25
3,"Cc1c(C(=O)Nc2ccc(F)cc2)sc2ncc(C(=O)Nc3ccc(F)cc3)cc12 [Compound 397, N2,N5-bis(4-fluorophenyl)-3-methyl-thieno[2,3-b]pyridine-2,5-dicarboxamide]",< 5
4,"Nc1c(C(=O)Nc2ccccc2OC(F)(F)F)sc2nc(-c3ccncc3)ccc12 [Compound 487, 3-amino-6-(4-pyridyl)-N-[2-(trifluoromethoxy)phenyl]thieno[2,3-b] pyridine-2-carboxamide]",< 5
5,"N#Cc1c(N)nc2sc(C(=O)Nc3nc(-c4ccccc4)cs3)c(N)c2c1-c1ccco1 [Compound 383, 3,6-diamino-5-cyano-4-(2-furyl)-N-(4-phenylthiazol-2-yl)thieno[2,3-b]pyridine-2-carboxamide]",< 5
6,"COc1cccc(-c2ccc3c(N)c(C(=O)Nc4ccc(C)cc4)sc3n2)c1 [Compound 553, 3-amino-6-(3-methoxyphenyl)-N-(p-tolyl)thieno[2,3-b]pyridine-2-carboxamide]",< 5
7,"Nc1c(C(=O)Nc2ccc(Br)cc2)sc2ncccc12 [Compound 423, 3-amino-N-(4-bromophenyl)thieno[2,3-b] pyridine-2-carboxamide]",< 5
8,"Nc1c(C(=O)Nc2ccccc2Br)sc2ncccc12 [Compound 422, 3-amino-N-(2-bromophenyl)thieno[2,3-b] pyridine-2-carboxamide]",< 5
9,"COc1cccc(-c2ccc3c(N)c(C(=O)Nc4ccc5c(c4)OCCO5)sc3n2)c1 [Compound 499, 3-amino-N-(2,3-dihydor-1,4-benzodioxin-6-yl)-6-(3-methoxyphenyl)thieno[2,3-b] pyridine-2-carboxamide]",< 5

# Same assay, conditions: Dengue virus, Vero, 48 h, read-out: Activity (EC50 class) against Dengue-2 Virus in Vero cells
row,Compound,EC50 [µM]
1,"NC(=O)c1sc2nc3c(c(-c4ccc(Cl)cc4)c2c1N)CCCC3 [Compound 224, 3-Amino-4-(4-chloro-phenyl)-5,6,7,8-tetrahydro-thieno[2,3-b]quinoline-2-carboxylic acid amide]",> 25
2,"CC(C)N1CCc2nc3sc(C(=O)NCc4ccc5c(c4)OCO5)c(N)c3cc2C1 [Compound 26, 3-Amino-6-isopropyl-5,6,7,8-tetrahydro-thieno[2,3-b][1,6]naphthyridine-2-carboxylic acid (benzo[1,3]dioxol-5-ylmethyl)-amide]",< 5
3,"Cc1csc(NC(=O)c2sc3nc(C)c4c(c3c2N)CCCC4)n1 [Compound 4, 1-Amino-5-methyl-6,7,8,9-tetrahydro-thieno[2,3-c]isoquinoline-2-carboxylic acid (4-methyl-thiazol-2-yl)-amide]",< 5
4,"Cc1cc(C(F)(F)F)c2c(N)c(C(=O)Nc3cccc(C(F)(F)F)c3)sc2n1 [Compound 149, 3-Amino-6-methyl-4-trifluoromethyl-thieno[2,3-b]pyridine-2-carboxylic acid (3-trifluoromethyl-phenyl)-amide]",> 25
5,"CN(C)c1ccnc2sc3c(=O)n(-c4ccccc4)cnc3c12 [Compound 159, 9-Dimethylamino-3-phenyl-3H-pyrido[3′,2′:4,5]thieno[3,2-d]pyrimidin-4-one]",> 25
6,"Nc1c(C(=O)Nc2nccs2)sc2nc3c(c(-c4ccccc4Cl)c12)CCCC3 [Compound 10, 3-Amino-4-(2-chloro-phenyl)-5,6,7,8-tetrahydro-thieno[2,3-b]quinoline-2-carboxylic acid thiazol-2-ylamide]",< 5
7,"Nc1c(C(=O)Nc2nccs2)sc2nc3c(c(-c4cccs4)c12)CCCCC3 [Compound 223, 3-Amino-4-thiophen-2-yl-6,7,8,9-tetrahydro-5H-1-thia-10-aza-cyclohepta[f]indene-2-carboxylic acid thiazol-2-ylamide]",> 25

# Same assay, conditions: Dengue virus; Vero cells, MOI 0.1, harvested 48 hours post infection; read-out: Activity (EC50 class) against Dengue-2 Virus in Vero cells
row,Compound,EC50 [µM]
1,"Cc1ccc(-c2c3c(nc4sc(C(N)=O)c(N)c24)CCCC3)cc1 [Compound 227, 3-Amino-4-p-tolyl-5,6,7,8-tetrahydro-thieno[2,3-b]quinoline-2-carboxylic acid amide]",> 25
2,"Cc1ccccc1NC(=O)c1sc2nc3c(c(-c4cccs4)c2c1N)CN(C)CC3 [Compound 27, 3-Amino-6-methyl-4-thiophen-2-yl-5,6,7,8-tetrahydro-thieno[2,3-b][1,6]naphthyridine-2-carboxylic acid o-tolylamide]",< 5
3,"COCc1cc(C)nc2sc(C(=O)Nc3ccc(N4CCOCC4)cc3)c(N)c12 [Compound 243, 3-Amino-4-methoxymethyl-6-methyl-thieno[2,3-b]pyridine-2-carboxylic acid (4-morpholin-4-yl-phenyl)-amide]",> 25
4,"CN1CCc2nc3sc(C(=O)NCc4ccccc4Cl)c(N)c3cc2C1 [Compound 113, 3-Amino-6-methyl-5,6,7,8-tetrahydro-thieno[2,3-b][1,6]naphthyridine-2-carboxylic acid 2-chloro-benzylamide]",5 to 25
5,"COc1cc2c(cc1OC)CN(C(=O)c1sc3nc4c(cc3c1N)CN(C)CC4)CC2 [Compound 274, (3-Amino-6-methyl-5,6,7,8-tetrahydro-thieno[2,3-b][1,6]naphthyridin-2-yl)-(6,7-dimethoxy-3,4-dihydro-1H-isoquinolin-2-yl)-methanone]",> 25
6,"CC1(C)Cc2c(c(N3CCOCC3)nc3sc4c(=O)n(-c5ccc(Cl)c(Cl)c5)cnc4c23)CO1 [Compound 245, 9-(3,4-Dichloro-phenyl)-2,2-dimethyl-5-morpholin-4-yl-1,4-dihydro-2H,9H-3-oxa-7-thia-6,9,11-triaza-benzo[c]fluoren-8-one]",> 25
7,"CCN(CC)C(=O)c1sc2nc(-c3cccs3)cc(C(F)(F)F)c2c1N [Compound 85, 3-Amino-6-thiophen-2-yl-4-trifluoromethyl-thieno[2,3-b]pyridine-2-carboxylic acid diethylamide]",5 to 25
8,"COCc1cc(C)nc2sc(C(=O)Nc3cc(Cl)ccc3Cl)c(N)c12 [Compound 211, 3-Amino-4-methoxymethyl-6-methyl-thieno[2,3-b]pyridine-2-carboxylic acid (2,5-dichloro-phenyl)-amide]",> 25
9,"C=CCn1cnc2c(sc3nc4c(cc32)COC(C)(C)C4)c1=O [Compound 202, 2-Allyl-8,8-dimethyl-8,9-dihydro-2H,6H-7-oxa-11-thia-2,4,10-triaza-benzo[b]fluoren-1-one]",> 25
10,"COc1cc(-c2c(C#N)c(N)nc3sc(C(N)=O)c(N)c23)cc(OC)c1OC [Compound 155, 3,6-Diamino-5-cyano-4-(3,4,5-trimethoxy-phenyl)-thieno[2,3-b]pyridine-2-carboxylic acid amide]",> 25
11,"N#Cc1cc2c(N)c(C(=O)Nc3ccc(Cl)c(Cl)c3)sc2nc1N [Compound 129, 3,6-Diamino-5-cyano-thieno[2,3-b]pyridine-2-carboxylic acid (3,4-dichloro-phenyl)-amide]",> 25
12,"CC1(C)Cc2c(c(N3CCOCC3)nc3sc4c(c23)N2C(=O)CCC2(C)NC4=O)CO1 (centres unmarked) [Compound 248, 2,2,9a-Trimethyl-5-(4-morpholinyl)-1,4,9,9a,10,11-hexahydro-2H-pyrano[4″,3″:4′,5′]pyrido[3′,2′:4, 5]thieno[2,3-e]pyrrolo[1,2-a]pyrimidine-8,12-dione]",> 25
13,"CC1(C)Cc2c(c(N3CCOCC3)nc3sc(C(=O)N4CCOCC4)c(N)c23)CO1 [Compound 234, (1-Amino-8,8-dimethyl-5-morpholin-4-yl-8,9-dihydro-6H-7-oxa-3-thia-4-aza-cyclopenta[a]naphthalen-2-yl)-morpholin-4-yl-methanone]",> 25
14,"CN1CCc2nc3sc(C(=O)Nc4ccc(F)cc4)c(N)c3cc2C1 [Compound 29, 3-Amino-6-methyl-5,6,7,8-tetrahydro-thieno[2,3-b][1,6]naphthyridine-2-carboxylic acid (4-fluoro-phenyl)-amide]",< 5
15,"Nc1c(C(=O)Nc2ccc([N+](=O)[O-])cc2)sc2nc3c(cc12)CCC3 [Compound 215, 3-Amino-6,7-dihydro-5H-cyclopenta[b]thieno[3,2-e]pyridine-2-carboxylic acid (4-nitro-phenyl)-amide]",> 25
